Test results: patent US9561228B2 (Celgene Avilomics Research, Inc., priority 2013, dated 2017)

Test system: ERK1/ERK2
Assay: Measurement of Erk occupancy with biotinylated covalent probe I-299 (HT-29)
Type: cell-based
Conditions: HT-29 cells
Method: Measurement of Erk Occupancy with Biotinylated Covalent Probe
This experiment measured occupancy of the ERK1/ERK2 target by compounds according to the invention. This experiment was conducted using the Mesoscale Discovery test kit (Cat. # N45107B). One day before the assay, cells were split and added at 50,000 cells per well to a flat-bottom 96 well plate in 200 μl of growth medium. The next day, the medium was discarded, 100 μl medium containing test compound was added, and the plate was incubated at 37° C. for 120 minutes. The plate was rinsed once with PBS, and 50 μl lysis buffer with test compound was added. The plate was incubated at 4° C. for 30 min, and 30 μl of lysate was transferred to a plate to capture total and phosphor-Erk. Biotinylated probe 1-299 was diluted in lysis buffer and added to each well to a final concentration of 0.2 μM. The plate was incubated for 2 hr under constant shaking at room temperature. The plate was washed 3 times with MSD wash buffer. To detect the biotinylated probe bonding, tagged streptavidin was added (Mesoscale Discovery, Cat. # R32AD-1) at 1 μg/ml, 25 μl/well, followed by a 60 min incubation under shaking. The plate was washed 3 times, 150 μl MSD Read Buffer (Mesoscale Discovery, Cat. R61TX) was added and the plate was read in a plate reader manufactured by MSD. Percent occupancy by test compound at Erk was calculated by comparing the chemiluminescence readings from treated cells as compared to the chemiluminescence readings in untreated controls (which are defined as 100% probe bonding or 0% test compound occupancy). The amount of covalent probe signal divided by the amount of ERK signal for samples with no test compound treatment represents the maximum probe signal (MPS). In samples treated with test compound prior to covalent probe, the ratio of probe signal to ERK signal (the test probe signal, TPS) was reduced by the degree of target occupancy by the test compound which blocks covalent probe binding. The difference between the MPS and the TPS, divided by the MPS gave the target occupancy by the test compound. This ratio was then expressed as a percent occupancy. Results from this assay are provided in Table A below under the column “Occupancy EC50 (nM) HT-29.”

For `C=CC(=O)Nc1ccccc1Nc1nc(Nc2cc(C(N)=O)ccc2C)ncc1C(F)(F)F` [Compound I-68, 3-(4-(2-Acrylamidophenylamino)-5-(trifluoromethyl)pyrimidin-2-ylamino)-4-methylbenzamide], the EC50 was < 100 nM.
